Laboratory results as given in PMC6364495, “Peptide–siRNA Supramolecular Particles for Neural Cell Transfection” (Advanced Science, 2018).
No end group written: not given here.

Columns and labels:
[1] = system: primary cortical embryonic neurons; assay: Internalization route with endocytosis inhibitors, neurons; type: cell-based, mouse; conditions: 300 μM amiloride, 30 minutes preincubation before P4 + siRNA-A488, flow cytometry
Experimental: 1-4 days post-transfection cells were washed carefully three times with 1x PBS. Each well was incubated with 200 µL […]
resuspended in 600 µL of media to neutralize the trypsin and were centrifuged for 15 min at […]. Supernatant was removed, and the pellet was re-suspended in approximately 40 μL of media before Flow Cytometry (BD LSRFortessa) was performed. DAPI (Sigma, 5 µg/mL) was added 1-3 min before measurements were taken to determine the absolute number of dead cells (excitation wavelength of 405 nm). Cell populations were gated based on cell size (FSC), granularity of the cytoplasm (SSC), multiple cells (FSC-W), UV fluorescence (DAPI filter). Percentage of positive cells was calculated from alive cells (DAPI negative). All the samples were measured in triplicates. Results were analyzed using FlowJo software.
After 15 div neural cells were treated with either 5 μg/mL chlorpromazine hydrochloride, 1μg/mL fillipin III from Streptomyces filipinensis, 300 μM amiloride hydrochloride or a combination of them in fresh serum-free medium for 30 minutes before incubated with the peptide (52 μM) + siRNA-A488 (100 nM) for 15h. Samples were analyzed using flow cytometry as described in the previous section.
Western blot/ immunocytochemistry […]

[2] = molecular target: T1, Proteinase K (Parengyodontium album, UniProt P06873); assay: Proteinase K digestion test; type: in vitro ADME, Tritirachium album; conditions: 50 µM peptide, 0.2 µM siRNA, 25 mM HEPES pH 7.4, 24h, 37C, gel
T1 construct: purchased Sigma-Aldrich
Experimental: (§1) (Inhepar®, 5000 U/mL equivalent to) and Milli -Q® water to a final concentration of 0.01 mg/mL (1 U/mL) in a final volume of 10 μL. Samples were incubated at room temperature for 2h. After incubation, samples were run in a native 6% polyacrylamide electrophoresis gel as described in the section above.
(§2) A solution of 40 µM peptide and 0.2 µM DNA dissolved in 10X DNAse I buffer (Invitrogen) was mixed with DNAse I (Invitrogen) for a final enzyme concentration of 0.003 U/µL. The solution was incubated at 37 C and at each time point, 12 µL were mixed with 2.7 µL of 5X TBE buffer in ice to quench the enzyme. Then an aliquot of 4 M NaCl was added to every time point sample to a final concentration of […] after incubation for 3 days at 4°C the samples were ran in an electrophoresis gel.
(§3) Proteinase K Digestion Test
(§4) A previously prepared solution of 50 µM peptide and 0.2 µM siRNA dissolved in buffer 25 mM HEPES pH 7.4 were incubated during 24h at 37C in presence of Proteinase K from Tritirachium album (Sigma-Aldrich). After this time an aliquot of it was ran in an electrophoresis gel as mentioned above.
(§5) Salt stability of P4-siRNA particles
(§6) Sample solutions of 70 µM P4 peptide and 0.2 µM of siRNA in 25 mM HEPES pH 7.4 were incubated with different concentrations of NaCl (0-300 mM) for 24h at room temperature.
(§7) The samples were run in a native 6% polyacrylamide electrophoresis gel prepared manually. […]

[3] = molecular target: T2, DNAse I (Bos taurus, UniProt P00639); assay: Salt stability and DNAse I digestion of P4-DNA particles; type: in vitro ADME; conditions: versus siRNA particles, DNAse I 0.003 U/µL, 37 C, gel
T2 construct: purchased Invitrogen
Experimental: as §1, §2, §3, §4, §5, §6, §7

[4] = system: primary cortical astroglial cells; type: cell-based; conditions: 24 h, 104 µM
Experimental: (§8) Dulbecco’s Modified Eagle Medium (DMEM, Biological Industries), 10% normal horse serum (NHS, GIBCO), 1% penicillin-streptomycin (Pen-Strep, Biological Industries) and 2mM L-glutamine (Biological Industries). After centrifugation and re-suspension, cells were plated and grown to confluence at 37°C, 5% CO 2 (approximately 25-30 days in vitro (div)).
(§9) All the experiments were performed using glial cells from the first passage (Ps1). Passage 1 (Ps1) cells were cultured at a density of 2x10^5 cells/cm2 for 15 days in vitro (div) in DMEM, 1% Pen-Strep and 2mM L-glutamine on non-coated culture plastic (for Western blotting, flow cytometry) or glass (for immunocytochemistry). The cell composition and biochemical characterization of control and reference glial conditions have been described previously2.
(§10) Neurons were obtained from embryonic brains, as described3. Briefly, a time pregnant mouse was sacrificed by cervical dislocation and the embryos were extracted at embryonic day 16 (E16). […]
(§11) resuspended in 600 µL of media to neutralize the trypsin and were centrifuged for 15 min at 1.2 rpm. […] Cell populations were gated based on cell size (FSC), granularity of the cytoplasm (SSC), multiple cells (FSC-W), UV fluorescence (DAPI filter). Percentage of positive cells was calculated from alive cells (DAPI negative). All the samples were measured in triplicates. Results were analyzed using FlowJo software. […]

[5] = system: primary cortical embryonic neurons; type: cell-based; conditions: 24 h, 104 µM
Experimental: as §8, §9, §10, §11

[6] = Water solubility of peptide; type: physicochemical

T2 sequence (P00639 23-282): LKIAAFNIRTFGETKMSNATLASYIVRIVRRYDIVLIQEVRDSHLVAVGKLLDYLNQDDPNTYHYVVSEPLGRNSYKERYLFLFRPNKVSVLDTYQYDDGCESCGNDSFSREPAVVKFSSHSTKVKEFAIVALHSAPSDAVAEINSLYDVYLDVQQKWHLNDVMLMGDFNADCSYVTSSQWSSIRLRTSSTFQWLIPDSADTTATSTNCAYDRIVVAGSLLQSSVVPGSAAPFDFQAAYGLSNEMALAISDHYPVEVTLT
T1 sequence (P06873 106-384): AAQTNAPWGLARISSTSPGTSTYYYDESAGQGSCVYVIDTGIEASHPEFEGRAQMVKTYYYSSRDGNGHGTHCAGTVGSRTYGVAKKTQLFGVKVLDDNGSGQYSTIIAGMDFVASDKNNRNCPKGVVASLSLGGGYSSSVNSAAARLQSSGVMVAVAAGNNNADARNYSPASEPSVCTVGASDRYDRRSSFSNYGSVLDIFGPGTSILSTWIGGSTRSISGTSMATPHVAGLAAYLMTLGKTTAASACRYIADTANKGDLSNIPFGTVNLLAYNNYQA

For `N=C(N)NC(=O)c1nc(Cl)c(N)nc1N` [Amiloride, amiloride], which “reduction of uptake of siRNA, neuronal” value [1] is on record?
The value was 80% ± 9.1.

With “SIRKLEYEIEELRLRIGGGTFVETGSGTSKQVAKRVAAEKLLTKFKT [P4]” as the molecule, how does the “release of siRNA after proteinase K digestion” value [2] read?
Its value is “can be released after protease digestion”.

What about the “salt and enzymatic stability of P4 complexed with dsDNA” value [3] of the same molecule?
The value was “lower salt and enzymatic stability”.

What about the “cell survival, astroglial cells” value [4] of the same molecule?
Its value is 88% ± 5.5.

And the “cell survival, neuronal cells” value [5]?
Its value is 89% ± 7.

For “MPVGSLQELAVQKGWRLPEYTVAQESGPPHKREFTITVRVE [P1]”, which water solubility [6] is on record?
Its water solubility is “poor water solubility”.
